Measurements taken from ChEMBL document CHEMBL2046396, “Discovery and modification of sulfur-containing heterocyclic pyrazoline derivatives as potential novel class of β-ketoacyl-acyl carrier protein synthase III (FabH) inhibitors” (Bioorg Med Chem Lett, 2012).
In brackets after ≈: the same amount, converted by molar mass.

How the values were obtained:
Pseudomonas aeruginosa = assay: Antibacterial activity against Pseudomonas aeruginosa ATCC 27853 after 24 hrs by MTT assay; type: functional; details: ATCC 27853, 24 h
Escherichia coli = assay: Antibacterial activity against Escherichia coli ATCC 25922 after 24 hrs by MTT assay; type: functional; details: ATCC 25922, 24 h
Bacillus subtilis = assay: Antibacterial activity against Bacillus subtilis ATCC 530 after 24 hrs by MTT assay; type: functional; details: ATCC 530, 24 h
Staphylococcus aureus = assay: Antibacterial activity against Staphylococcus aureus ATCC 6538 after 24 hrs by MTT assay; type: functional; details: ATCC 6538, 24 h
[1] = Toxicity in RBC assessed as concentration required for 30% hemolysis; type: cell-based; details: erythrocyte
[2] = Inhibition of Escherichia coli FabH expressed in Escherichia coli BL21(DE3) using holo-ACP as substrate after 25 mins

Row | MIC (Pseudomonas aeruginosa) [µg/mL] | MIC (Escherichia coli) [µg/mL] | MIC (Bacillus subtilis) [µg/mL] | MIC (Staphylococcus aureus) [µg/mL] | IC50 [2] [µM] | Compound | HC30 [1] [mg/mL]
1 | 12.5 (≈ 37.3 µM) | 12.5 (≈ 37.3 µM) | 12.5 (≈ 37.3 µM) | 6.25 (≈ 18.6 µM) |  | Cc1ccc(C2=NN(C3=NC(=O)CS3)C(c3ccccc3)C2)cc1 (stereo not given) | 
2 | 12.5 (≈ 30.8 µM) | 12.5 (≈ 30.8 µM) | 50 (≈ 123 µM) | 12.5 (≈ 30.8 µM) |  | Fc1ccc(C2=NN(c3nc(-c4ccccc4)cs3)C(c3cccs3)C2)cc1 (stereo not given) | 
3 | 12.5 (≈ 26.8 µM) | 6.25 (≈ 13.4 µM) | 6.25 (≈ 13.4 µM) | 12.5 (≈ 26.8 µM) | 23.3 | Brc1ccc(C2=NN(c3nc(-c4ccccc4)cs3)C(c3cccs3)C2)cc1 (stereo not given) | > 10
4 | 12.5 (≈ 27.4 µM) | 50 (≈ 110 µM) | 12.5 (≈ 27.4 µM) | > 50 | > 150 | Clc1ccc(C2=NN(c3nc(-c4ccccc4)cs3)C(c3cccs3)C2)cc1Cl (stereo not given) | > 10
5 | 1.56 (≈ 3.88 µM) | 3.13 (≈ 7.79 µM) | 3.13 (≈ 7.79 µM) | 1.56 (≈ 3.88 µM) | 10.9 | Cc1ccc(C2=NN(c3nc(-c4ccccc4)cs3)C(c3cccs3)C2)cc1 (stereo not given) | > 10
6 | 50 (≈ 120 µM) | 6.25 (≈ 15 µM) | 12.5 (≈ 29.9 µM) | 6.25 (≈ 15 µM) | 30.6 | COc1ccc(C2=NN(c3nc(-c4ccccc4)cs3)C(c3cccs3)C2)cc1 (stereo not given) | > 10
7 | 12.5 (≈ 28.7 µM) | 12.5 (≈ 28.7 µM) | 12.5 (≈ 28.7 µM) | 12.5 (≈ 28.7 µM) |  | COc1ccc(-c2csc(N3N=C(c4ccc(F)cc4)CC3c3cccs3)n2)cc1 (stereo not given) | 
8 | 12.5 (≈ 25.2 µM) | 6.25 (≈ 12.6 µM) | 12.5 (≈ 25.2 µM) | 12.5 (≈ 25.2 µM) |  | COc1ccc(-c2csc(N3N=C(c4ccc(Br)cc4)CC3c3cccs3)n2)cc1 (stereo not given) | 
9 | 12.5 (≈ 25.7 µM) | 50 (≈ 103 µM) | 12.5 (≈ 25.7 µM) | 50 (≈ 103 µM) | > 150 | COc1ccc(-c2csc(N3N=C(c4ccc(Cl)c(Cl)c4)CC3c3cccs3)n2)cc1 (stereo not given) | > 10
10 | 12.5 (≈ 29 µM) | 6.25 (≈ 14.5 µM) | 6.25 (≈ 14.5 µM) | 12.5 (≈ 29 µM) |  | COc1ccc(-c2csc(N3N=C(c4ccc(C)cc4)CC3c3cccs3)n2)cc1 (stereo not given) | 
11 | 12.5 (≈ 27.9 µM) | 12.5 (≈ 27.9 µM) | 50 (≈ 112 µM) | 12.5 (≈ 27.9 µM) |  | COc1ccc(C2=NN(c3nc(-c4ccc(OC)cc4)cs3)C(c3cccs3)C2)cc1 (stereo not given) | 
12 | 12.5 (≈ 32.1 µM) | 6.25 (≈ 16 µM) | 50 (≈ 128 µM) | 6.25 (≈ 16 µM) | 22.3 | Fc1ccc(C2=NN(c3nc(-c4ccccc4)cs3)C(c3ccco3)C2)cc1 (stereo not given) | > 10
13 | 3.13 (≈ 6.95 µM) | 3.13 (≈ 6.95 µM) | 3.13 (≈ 6.95 µM) | 1.56 (≈ 3.46 µM) | 9.7 | Brc1ccc(C2=NN(c3nc(-c4ccccc4)cs3)C(c3ccco3)C2)cc1 (stereo not given) | > 10
14 | > 50 | 12.5 (≈ 28.4 µM) | 12.5 (≈ 28.4 µM) | 12.5 (≈ 28.4 µM) |  | Clc1ccc(C2=NN(c3nc(-c4ccccc4)cs3)C(c3ccco3)C2)cc1Cl (stereo not given) | 
15 | 1.56 (≈ 4.05 µM) | 1.56 (≈ 4.05 µM) | 3.13 (≈ 8.12 µM) | 1.56 (≈ 4.05 µM) | 4.6 | Cc1ccc(C2=NN(c3nc(-c4ccccc4)cs3)C(c3ccco3)C2)cc1 (stereo not given) | > 10
16 | 6.25 (≈ 14.9 µM) | 6.25 (≈ 14.9 µM) | 12.5 (≈ 29.8 µM) | 12.5 (≈ 29.8 µM) |  | COc1ccc(-c2csc(N3N=C(c4ccc(F)cc4)CC3c3ccco3)n2)cc1 (stereo not given) | 
17 | 6.25 (≈ 13 µM) | 6.25 (≈ 13 µM) | 6.25 (≈ 13 µM) | 12.5 (≈ 26 µM) | 19.7 | COc1ccc(-c2csc(N3N=C(c4ccc(Br)cc4)CC3c3ccco3)n2)cc1 (stereo not given) | > 10
18 | > 50 | 50 (≈ 106 µM) | > 50 | 12.5 (≈ 26.6 µM) |  | COc1ccc(-c2csc(N3N=C(c4ccc(Cl)c(Cl)c4)CC3c3ccco3)n2)cc1 (stereo not given) | 
19 | 3.13 (≈ 7.53 µM) | 3.13 (≈ 7.53 µM) | 6.25 (≈ 15 µM) | 6.25 (≈ 15 µM) | 15.7 | COc1ccc(-c2csc(N3N=C(c4ccc(C)cc4)CC3c3ccco3)n2)cc1 (stereo not given) | > 10
20 | > 50 | 6.25 (≈ 18.1 µM) | 12.5 (≈ 36.2 µM) | 12.5 (≈ 36.2 µM) |  | O=C1CSC(N2N=C(c3ccc(F)cc3)CC2c2cccs2)=N1 (stereo not given) | 
21 | 6.25 (≈ 15.4 µM) | 6.25 (≈ 15.4 µM) | 12.5 (≈ 30.8 µM) | 12.5 (≈ 30.8 µM) | 27.1 | O=C1CSC(N2N=C(c3ccc(Br)cc3)CC2c2cccs2)=N1 (stereo not given) | > 10
22 | 12.5 (≈ 31.5 µM) | 12.5 (≈ 31.5 µM) | > 50 | 12.5 (≈ 31.5 µM) |  | O=C1CSC(N2N=C(c3ccc(Cl)c(Cl)c3)CC2c2cccs2)=N1 (stereo not given) | 
23 | 6.25 (≈ 18.3 µM) | 6.25 (≈ 18.3 µM) | 6.25 (≈ 18.3 µM) | 3.13 (≈ 9.17 µM) | 13.6 | Cc1ccc(C2=NN(C3=NC(=O)CS3)C(c3cccs3)C2)cc1 (stereo not given) | > 10
24 | > 50 | 12.5 (≈ 35 µM) | 50 (≈ 140 µM) | 12.5 (≈ 35 µM) | 89.9 | COc1ccc(C2=NN(C3=NC(=O)CS3)C(c3cccs3)C2)cc1 (stereo not given) | > 10
25 | 6.25 (≈ 19 µM) | 3.13 (≈ 9.5 µM) | 3.13 (≈ 9.5 µM) | 3.13 (≈ 9.5 µM) | 8.4 | O=C1CSC(N2N=C(c3ccc(F)cc3)CC2c2ccco2)=N1 (stereo not given) | > 10
26 | 12.5 (≈ 32 µM) | 6.25 (≈ 16 µM) | 12.5 (≈ 32 µM) | 6.25 (≈ 16 µM) |  | O=C1CSC(N2N=C(c3ccc(Br)cc3)CC2c2ccco2)=N1 (stereo not given) | 
27 | 12.5 (≈ 32.9 µM) | 12.5 (≈ 32.9 µM) | 12.5 (≈ 32.9 µM) | 6.25 (≈ 16.4 µM) |  | O=C1CSC(N2N=C(c3ccc(Cl)c(Cl)c3)CC2c2ccco2)=N1 (stereo not given) | 
28 | 6.25 (≈ 19.2 µM) | 3.13 (≈ 9.62 µM) | 3.13 (≈ 9.62 µM) | 6.25 (≈ 19.2 µM) | 18.4 | Cc1ccc(C2=NN(C3=NC(=O)CS3)C(c3ccco3)C2)cc1 (stereo not given) | > 10
29 | 12.5 (≈ 31.6 µM) | 6.25 (≈ 15.8 µM) | 12.5 (≈ 31.6 µM) | 12.5 (≈ 31.6 µM) |  | Cc1ccc(C2=NN(c3nc(-c4ccccc4)cs3)C(c3ccccc3)C2)cc1 (stereo not given) | 
30 | 1.56 (≈ 3.23 µM) | 1.56 (≈ 3.23 µM) | 3.13 (≈ 6.47 µM) | 3.13 (≈ 6.47 µM) |  | NC[C@H]1O[C@H](O[C@H]2[C@H](O)[C@@H](O[C@H]3O[C@H](CO)[C@@H](O)[C@H](N)[C@H]3O)[C@H](N)C[C@@H]2N)[C@H](N)[C@@H](O)[C@@H]1O [BEKANAMYCIN] | 
